In PubChem BioAssay (NCI):
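The concentration for 50% growth inhibition is given as GI50. TGI marks complete inhibition of growth.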

Assays:
Assay in all cases: NCI tumour cell line growth inhibition, 384-well format
UACC-62 melanoma = test system: UACC-62 melanoma
SF-539 CNS = test system: SF-539 CNS
MALME-3M melanoma = test system: MALME-3M melanoma
OVCAR-4 ovarian = test system: OVCAR-4 ovarian
NCI-H322M lung = test system: NCI-H322M lung
SR leukemia = test system: SR leukemia
COLO 205 colon = test system: COLO 205 colon
SN12C renal = test system: SN12C renal
UACC-257 melanoma = test system: UACC-257 melanoma
SF-295 CNS = test system: SF-295 CNS
MDA-MB-468 breast = test system: MDA-MB-468 breast
CAKI-1 renal = test system: CAKI-1 renal
SF-268 CNS = test system: SF-268 CNS
NCI-H23 lung = test system: NCI-H23 lung
MOLT-4 leukemia = test system: MOLT-4 leukemia
SNB-75 CNS = test system: SNB-75 CNS
MCF7 breast = test system: MCF7 breast
MDA-MB-231 breast = test system: MDA-MB-231 breast
HCT-116 colon = test system: HCT-116 colon
EKVX NSCLC = test system: EKVX NSCLC
M14 melanoma = test system: M14 melanoma
NCI-H522 lung = test system: NCI-H522 lung
NCI/ADR-RES ovarian = test system: NCI/ADR-RES ovarian
A549 NSCLC = test system: A549 NSCLC
BT-549 breast = test system: BT-549 breast
KM12 colon = test system: KM12 colon
MDA-MB-435 melanoma = test system: MDA-MB-435 melanoma
HS 578T breast = test system: HS 578T breast
HL-60(TB) leukemia = test system: HL-60(TB) leukemia
OVCAR-8 ovarian = test system: OVCAR-8 ovarian
LOX IMVI melanoma = test system: LOX IMVI melanoma
OVCAR-5 ovarian = test system: OVCAR-5 ovarian
OVCAR-3 ovarian = test system: OVCAR-3 ovarian
SK-MEL-28 melanoma = test system: SK-MEL-28 melanoma
HOP-62 NSCLC = test system: HOP-62 NSCLC
RPMI-8226 leukemia = test system: RPMI-8226 leukemia
NCI-H460 NSCLC = test system: NCI-H460 NSCLC
SK-MEL-5 melanoma = test system: SK-MEL-5 melanoma
U251 glioblastoma = test system: U251 glioblastoma
HCC-2998 colon = test system: HCC-2998 colon
SK-OV-3 ovarian = test system: SK-OV-3 ovarian

SMILES: C[C@@H](O)[C@@H](C)Oc1nc(Nc2ccc(S(=N)(=O)C3CC3)cc2)ncc1C(F)(F)F (some centres not stated)
- GI50 (UACC-62 melanoma): 12.7 nM
- TGI (UACC-62 melanoma): 27.9 nM
- GI50 (SF-539 CNS): 17.9 nM
- TGI (SF-539 CNS): 36.4 nM
- GI50 (MALME-3M melanoma): 23.5 nM
- TGI (MALME-3M melanoma): 46.6 nM
- GI50 (OVCAR-4 ovarian): 21.3 nM
- TGI (OVCAR-4 ovarian): 56.9 nM
- GI50 (NCI-H322M lung): 21.2 nM
- TGI (NCI-H322M lung): 46.7 nM
- GI50 (SR leukemia): < 10 nM
- TGI (SR leukemia): 13.2 nM
- GI50 (COLO 205 colon): 16.4 nM
- TGI (COLO 205 colon): 42.6 nM
- GI50 (SN12C renal): 16.6 nM
- TGI (SN12C renal): 36.4 nM
- GI50 (UACC-257 melanoma): 17.7 nM
- TGI (UACC-257 melanoma): 37.2 nM
- GI50 (SF-295 CNS): 30.9 nM
- TGI (SF-295 CNS): > 100000 nM
- GI50 (MDA-MB-468 breast): 15.9 nM
- TGI (MDA-MB-468 breast): 30.2 nM
- GI50 (CAKI-1 renal): 32.2 nM
- TGI (CAKI-1 renal): > 100000 nM
- GI50 (SF-268 CNS): 20.1 nM
- TGI (SF-268 CNS): 58.6 nM
- GI50 (NCI-H23 lung): 17.1 nM
- TGI (NCI-H23 lung): 36.1 nM
- GI50 (MOLT-4 leukemia): 20.2 nM
- TGI (MOLT-4 leukemia): 35 nM
- GI50 (SNB-75 CNS): 16.4 nM
- TGI (SNB-75 CNS): 33 nM
- GI50 (MCF7 breast): 24.1 nM
- TGI (MCF7 breast): > 100000 nM
- GI50 (MDA-MB-231 breast): 28.3 nM
- TGI (MDA-MB-231 breast): > 100000 nM
- GI50 (HCT-116 colon): 12.5 nM
- TGI (HCT-116 colon): > 100000 nM
- GI50 (EKVX NSCLC): 23.8 nM
- TGI (EKVX NSCLC): 52 nM
- GI50 (M14 melanoma): 19.7 nM
- TGI (M14 melanoma): 85.2 nM
- GI50 (NCI-H522 lung): < 10 nM
- TGI (NCI-H522 lung): 24.9 nM
- GI50 (NCI/ADR-RES ovarian): 67.3 nM
- TGI (NCI/ADR-RES ovarian): 406 nM
- GI50 (A549 NSCLC): 33.4 nM
- TGI (A549 NSCLC): > 100000 nM
- GI50 (BT-549 breast): 12.4 nM
- TGI (BT-549 breast): 27.1 nM
- GI50 (KM12 colon): 23.4 nM
- TGI (KM12 colon): > 100000 nM
- GI50 (MDA-MB-435 melanoma): 23.3 nM
- TGI (MDA-MB-435 melanoma): 64.5 nM
- GI50 (HS 578T breast): 24.4 nM
- TGI (HS 578T breast): 62.8 nM
- GI50 (HL-60(TB) leukemia): < 10 nM
- TGI (HL-60(TB) leukemia): 20.7 nM
- GI50 (OVCAR-8 ovarian): 18.8 nM
- TGI (OVCAR-8 ovarian): 73.7 nM
- GI50 (LOX IMVI melanoma): 14.6 nM
- TGI (LOX IMVI melanoma): 48.9 nM
- GI50 (OVCAR-5 ovarian): 16.8 nM
- TGI (OVCAR-5 ovarian): 54.5 nM
- GI50 (OVCAR-3 ovarian): 18.2 nM
- TGI (OVCAR-3 ovarian): 43.9 nM
- GI50 (SK-MEL-28 melanoma): 16.4 nM
- TGI (SK-MEL-28 melanoma): 39.5 nM
- GI50 (HOP-62 NSCLC): 14.4 nM
- TGI (HOP-62 NSCLC): 44.8 nM
- GI50 (RPMI-8226 leukemia): 15.2 nM
- TGI (RPMI-8226 leukemia): 28.9 nM
- GI50 (NCI-H460 NSCLC): 12 nM
- TGI (NCI-H460 NSCLC): 28.5 nM
- GI50 (SK-MEL-5 melanoma): < 10 nM
- TGI (SK-MEL-5 melanoma): 21.5 nM
- GI50 (U251 glioblastoma): 20.2 nM
- TGI (U251 glioblastoma): 60 nM
- GI50 (HCC-2998 colon): 12 nM
- TGI (HCC-2998 colon): 33.3 nM
- GI50 (SK-OV-3 ovarian): 41.7 nM
- TGI (SK-OV-3 ovarian): > 100000 nM
